Assay results from patent US20110027226A1, “INDOLOPYRIDINES AS INHIBITORS OF THE KINESIN SPINDLE PROTEIN (EG5)” (4SC AG, priority 2007, published 2011).

Assays:
[1] = system: RKO human colon adenocarcinoma cells (RKOp27 subclone, uninduced, proliferating); assay: Alamar Blue cell viability assay, anti-proliferative/cytotoxic activity, RKO p27 uninduced (proliferating); assay type: cell-based; conditions: 72 hours incubation, read-out: −log EC50 [mol/l] RKO p27 uninduced (proliferating) (converted)
Experimental: The compounds are dissolved as 10 mM solutions in DMSO and subsequently diluted in semi-logarithmic steps. DMSO dilutions are further diluted 1:100 v:v into Dulbecco's modified Eagle's medium (DMEM) containing 10% fetal calf serum to a final concentration twice as much as the final concentration in the test. RKO subclones are seeded into 96 well flat bottom plates at a density of 4000 cells per well in a volume of 50 μl per well. 24 hours after seeding the 50 μl each of the compound dilutions in DMEM medium are added into each well of the 96 well plate. Each compound dilution is tested as triplicates. Wells containing untreated control cells are filled with 50 μl DMEM medium containing 1% DMSO. The cells are then incubated with the substances for 72 hours at 37° C. in a humidified atmosphere containing 5% carbon dioxide. To determine the viability of the cells, 10 μl of an Alamar Blue solution (Biosource) are added and the fluorescence is measured at an extinction of 544 nm and an emission of 590 nm. For the calculation of the cell viability the emission value from untreated cells is set as 100% viability and the emission rates of treated cells are set in relation to the values of untreated cells. Viabilities are expressed as % values. The Graphpad Prism program is used for the calculation of EC50 values for anti-proliferative/cytotoxic activity out of the obtained dose-response curves.
Each compound dilution is tested as triplicates. Wells containing untreated control cells are filled with 50 μl DMEM medium containing 1% DMSO. The cells are then incubated with the substances for 72 hours at 37° C. in a humidified atmosphere containing 5% carbon dioxide. To determine the viability of the cells, 10 μl of an Alamar Blue solution (Biosource) are added and the fluorescence is measured at an extinction of 544 nm and an emission of 590 nm. For the calculation of the cell viability the emission value from untreated cells is set as 100% viability and the emission rates of treated cells are set in relation to the values of untreated cells. Viabilities are expressed as % values. The Graphpad Prism program (GraphPad Software, Inc) is used for the calculation of EC50 values out of the obtained dose-response curves. Viability is compared of proliferating cells grown in the absence of the inducer Ponasterone A, versus viability of cells arrested by the expression of ectopic p27Kip1 induced by Ponasterone A.

| SMILES | melting point [°C] | EC50 [1] [nM] |
| --- | --- | --- |
| CN1C(=O)[C@@H]2Cc3c([nH]c4ccc(Br)cc34)[C@@H](c3cccc(O)c3)N2C1=O (racemic) [Example 3, (3aSR,10RS)-6-Bromo-10-(3-hydroxy-phenyl)-2-methyl-3a,4,9,10-tetrahydro-2,9,10a-triaza-cyclopenta[b]fluorene-1,3-dione] | – | ≤ 1000 |
| Cc1ccc2[nH]c3c(c2c1)C[C@H]1C(=O)N(C)C(=O)N1[C@@H]3c1cccc(O)c1 (racemic) [Example 4, (3aSR,10RS)-10-(3-Hydroxy-phenyl)-2,6-dimethyl-3a,4,9,10-tetrahydro-2,9,10a-triaza-cyclopenta[b]fluorene-1,3-dione] | – | ≤ 1000 |
| Cc1cccc2[nH]c3c(c12)C[C@H]1C(=O)N(C)C(=O)N1[C@@H]3c1cccc(O)c1 (racemic) [Example 5, (3aSR,10RS)-10-(3-Hydroxy-phenyl)-2,5-dimethyl-3a,4,9,10-tetrahydro-2,9,10a-triaza-cyclopenta[b]fluorene-1,3-dione] | 348 to 352 | ≤ 1000 |

More lines, main results first:

| melting point [°C] | SMILES | EC50 [1] [nM] |
| --- | --- | --- |
| 279 to 283 | CN1C(=O)[C@@H]2Cc3c([nH]c4cc(F)ccc34)[C@@H](c3cccc(O)c3)N2C1=O (racemic) [Example 2, (3aSR,10RS)-7-Fluoro-10-(3-hydroxy-phenyl)-2-methyl-3a,4,9,10-tetrahydro-2,9,10a-triaza-cyclopenta[b]fluorene-1,3-dione] | ≤ 1000 |
| 282 to 285 | Cc1ccc2c3c([nH]c2c1)[C@@H](c1cccc(O)c1)N1C(=O)N(C)C(=O)[C@@H]1C3 (racemic) [Example 6, (3aSR,10RS)-10-(3-Hydroxy-phenyl)-2,7-dimethyl-3a,4,9,10-tetrahydro-2,9,10a-triaza-cyclopenta[b]fluorene-1,3-dione] | – |
| 172 to 175 | COc1ccc2[nH]c3c(c2c1)C[C@H]1C(=O)N(C)C(=O)N1[C@@H]3c1cccc(O)c1 (racemic) [Example 7, (3aSR,10RS)-10-(3-Hydroxy-phenyl)-6-methoxy-2-methyl-3a,4,9,10-tetrahydro-2,9,10a-triaza-cyclopenta[b]fluorene-1,3-dione] | ≤ 1000 |
